Assay results from publication PMC6462819 (Science immunology, 2018).

Biological target: T1, recombinant GSDMD (human, full-length) (Homo sapiens, UniProt P57764)
T1 sequence (P57764 1-484): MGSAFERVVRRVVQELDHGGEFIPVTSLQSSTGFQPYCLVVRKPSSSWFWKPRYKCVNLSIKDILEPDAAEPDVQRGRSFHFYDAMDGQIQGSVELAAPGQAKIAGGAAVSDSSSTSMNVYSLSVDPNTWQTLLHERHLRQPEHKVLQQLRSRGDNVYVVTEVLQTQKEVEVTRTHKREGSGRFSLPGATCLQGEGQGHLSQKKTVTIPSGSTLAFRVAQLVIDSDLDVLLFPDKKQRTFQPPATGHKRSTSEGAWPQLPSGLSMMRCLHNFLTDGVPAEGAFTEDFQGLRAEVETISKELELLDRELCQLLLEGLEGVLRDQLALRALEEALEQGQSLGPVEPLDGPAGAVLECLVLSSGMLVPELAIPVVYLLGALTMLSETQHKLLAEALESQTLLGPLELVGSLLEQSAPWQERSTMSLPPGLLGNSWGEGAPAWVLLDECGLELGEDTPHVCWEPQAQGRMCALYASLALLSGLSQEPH
Test: surface plasmon resonance, Biacore T200
Format: binding

Kd: 32 ± 3.8 µM
SMILES: COc1nccnc1NS(=O)(=O)c1ccc(NC(=O)/C=C/c2ccc([N+](=O)[O-])s2)cc1 [necrosulfonamide]
